Source: patent publication US20070203091A1, “Methods and therapeutic compositions for improving liver, blood flow and skeletal muscle functions in advanced diseases and aging” (priority 2006, published 2007)

Columns and labels:
[1] = ATP pharmacokinetics: blood plasma (extracellular) ATP levels, Phase I study; type: in vivo, human; details: for Initial Extracellular ATP Concentration, Median: ITT
Description: The solution was administered by continuous intravenous infusions using an Ivac or similar infusion device through venous access in a peripheral vein. If venous access was a problem, either a Hickman catheter or its equivalent, or an Infusaport or its equivalent was inserted to provide vascular access.
The 50 μg/kg/min dose could be reduced to 25 μg/kg/min if adverse effects occurred. […] Succeeding infusions in that patient were at the infusion dose tolerated at the end of the previous treatment. If adverse events occurred in patients being infused at 25 μg/kg/min, the infusions were terminated and the patient received no additional infusions.

[2] = Laboratory parameters, chemistry: LDH, bilirubin, SGOT, SGPT, Phase I study; type: in vivo, human
From the text: Serum LDH levels are an established strong independent negative prognostic factor, inversely related to survival in a great variety of adverse clinical conditions. In advanced refractory cancers, high LDH and low Karnofsky's performance status are among the strongest established independent negative prognostic factors of survival and quality of life (29).

[3] = Week 1 (Infusion 1), baseline, N=15

Nc1ncnc2c1ncn2[C@@H]1O[C@H](COP(=O)(O)OP(=O)(O)OP(=O)(O)O)[C@@H](O)[C@H]1O [ATP, adenosine 5′-triphosphate]
blood plasma (extracellular) ATP levels ([1]; ATP continuously for eight hours): increases
Initial Extracellular ATP Concentration, Median ([1]; Week 1 (Infusion 1), 4 hours into infusion, N=13): 0.109 µM
Initial Extracellular ATP Concentration, Median ([1]; Week 1 (Infusion 1), 8.25 hours, N=1): 0.141 µM
Initial Extracellular ATP Concentration, Median ([1]; Week 1 (Infusion 1), 9 hours, N=10): 0.150 µM
Initial Extracellular ATP Concentration, Median ([1]; Week 1 (Infusion 1), 10 hours, N=12): 0.091 µM
Initial Extracellular ATP Concentration, Median ([1]; Week 1 (Infusion 1), 11 hours, N=12): 0.062 µM
Initial Extracellular ATP Concentration, Median ([1]; Week 1 (Infusion 1), 12 hours, N=11): 0.044 µM
Initial Extracellular ATP Concentration, Median ([1]; Week 1 (Infusion 1), 14 hours, N=8): 0.029 µM
Initial Extracellular ATP Concentration, Median ([1]; Week 1 (Infusion 1), 16 hours, N=10): 0.050 µM
Initial Extracellular ATP Concentration, Median ([1]; Week 1 (Infusion 1), 20 hours, N=8): 0.052 µM
Initial Extracellular ATP Concentration, Median ([1]; Week 1 (Infusion 1), 24 hours, N=12): 0.079 µM
Initial Extracellular ATP Concentration, Median ([1]; Week 1 (Infusion 1), […], N=10): 0.238 µM
Initial Extracellular ATP Concentration, Median ([1]; Week 3 (Infusion 3), 4 hours into infusion, N=9): 0.200 µM
Initial Extracellular ATP Concentration, Median ([1]; Week 3 (Infusion 3), 8 hours (before the end), N=9): 0.240 µM
Initial Extracellular ATP Concentration, Median ([1]; Week 3 (Infusion 3), 8.25 hours, N=1): 0.055 µM
Initial Extracellular ATP Concentration, Median ([1]; Week 3 (Infusion 3), 9 hours, N=9): 0.170 µM
Initial Extracellular ATP Concentration, Median ([1]; Week 3 (Infusion 3), 10 hours, N=9): 0.060 µM
Initial Extracellular ATP Concentration, Median ([1]; Week 3 (Infusion 3), 11 hours, N=10): 0.060 µM
Initial Extracellular ATP Concentration, Median ([1]; Week 3 (Infusion 3), 12 hours, N=8): 0.065 µM
Initial Extracellular ATP Concentration, Median ([1]; Week 3 (Infusion 3), 14 hours, N=6): 0.032 µM
Initial Extracellular ATP Concentration, Median ([1]; Week 3 (Infusion 3), 16 hours, N=5): 0.040 µM
Initial Extracellular ATP Concentration, Median ([1]; Week 3 (Infusion 3), 20 hours, N=5): 0.070 µM
Initial Extracellular ATP Concentration, Median ([1]; Week 3 (Infusion 3), 24 hours, N=8): 0.044 µM
Initial Extracellular ATP Concentration, Median ([1]; Week 3 (Infusion 3), Time ‘0’ (pre-infusion), N=10): 0.055 µM
Initial Extracellular ATP Concentration, Median ([1]; Week 3 (Infusion 3), […], N=9): 0.200 µM
Initial Extracellular ATP Concentration, Median ([1]; Week 8 (infusion 8), 4 hours into infusion, N=3): 0.390 µM
Initial Extracellular ATP Concentration, Median ([1]; Week 8 (infusion 8), Time ‘0’ (pre-infusion), N=3): 0.080 µM
LDH, Change from Baseline, Median [2, 3]: 0.0 U/L
LDH, Observed Values, Mean [2, 3]: 349.0 U/L
LDH, Observed Values, Median [2, 3]: 265.0 U/L
Phosphorus, Change from Baseline, Mean [2, 3]: 0.0 mg/dL
Phosphorus, Change from Baseline, Median [2, 3]: 0.0 mg/dL
Phosphorus, Observed Values, Mean [2, 3]: 3.1 mg/dL
Phosphorus, Observed Values, Median [2, 3]: 3.2 mg/dL
Total Bilirubin, Change from Baseline, Mean [2, 3]: 0.0 mg/dL
Total Bilirubin, Change from Baseline, Median [2, 3]: 0.0 mg/dL
Total Bilirubin, Observed Values, Mean [2, 3]: 0.7 mg/dL
Total Bilirubin, Observed Values, Median [2, 3]: 0.4 mg/dL
LDH, Change from Baseline, Median ([2]; Week 2 (Infusion 2), N=14): 24.0 U/L
LDH, Observed Values, Mean ([2]; Week 2 (Infusion 2), N=14): 386.6 U/L
LDH, Observed Values, Median ([2]; Week 2 (Infusion 2), N=14): 325.5 U/L
Phosphorus, Change from Baseline, Mean ([2]; Week 2 (Infusion 2), N=14): 0.1 mg/dL
Phosphorus, Change from Baseline, Median ([2]; Week 2 (Infusion 2), N=14): 0.1 mg/dL
Phosphorus, Observed Values, Mean ([2]; Week 2 (Infusion 2), N=14): 3.2 mg/dL
Phosphorus, Observed Values, Median ([2]; Week 2 (Infusion 2), N=14): 3.2 mg/dL
Total Bilirubin, Change from Baseline, Mean ([2]; Week 2 (Infusion 2), N=14): -0.1 mg/dL
Total Bilirubin, Change from Baseline, Median ([2]; Week 2 (Infusion 2), N=14): 0.0 mg/dL
Total Bilirubin, Observed Values, Mean ([2]; Week 2 (Infusion 2), N=14): 0.6 mg/dL
Total Bilirubin, Observed Values, Median ([2]; Week 2 (Infusion 2), N=14): 0.4 mg/dL
LDH, Change from Baseline, Median ([2]; Week 4 (Infusion 4), N=11): 3.0 U/L
LDH, Observed Values, Mean ([2]; Week 4 (Infusion 4), N=11): 277.4 U/L
LDH, Observed Values, Median ([2]; Week 4 (Infusion 4), N=11): 211.0 U/L
Phosphorus, Change from Baseline, Mean ([2]; Week 4 (Infusion 4), N=11): -0.1 mg/dL
Phosphorus, Change from Baseline, Median ([2]; Week 4 (Infusion 4), N=11): 0.0 mg/dL
Phosphorus, Observed Values, Mean ([2]; Week 4 (Infusion 4), N=11): 3.1 mg/dL
Phosphorus, Observed Values, Median ([2]; Week 4 (Infusion 4), N=11): 3.0 mg/dL
Total Bilirubin, Change from Baseline, Mean ([2]; Week 4 (Infusion 4), N=11): 0.2 mg/dL
Total Bilirubin, Change from Baseline, Median ([2]; Week 4 (Infusion 4), N=11): -0.1 mg/dL
Total Bilirubin, Observed Values, Mean ([2]; Week 4 (Infusion 4), N=11): 0.8 mg/dL
Total Bilirubin, Observed Values, Median ([2]; Week 4 (Infusion 4), N=11): 0.2 mg/dL
LDH, Change from Baseline, Median ([2]; Week 6 (Infusion 6), N=9): −20.0 U/L
LDH, Observed Values, Mean ([2]; Week 6 (Infusion 6), N=9): 265.6 U/L
LDH, Observed Values, Median ([2]; Week 6 (Infusion 6), N=9): 173.0 U/L
